Holding throughout (experiment): Dynamic properties (Michaelis-Menten) of LsGluDH mutant, PPO reductive amination
Assay type in all cases: biochemical
Holding throughout (conditions): PPO 5-100 mM, NADPH 0.15 mM, NH4Cl 50 mM, PBS pH 7.5, 30° C., diluted crude enzyme, 340 nm

Assay [1] deals with T1, Lysinibacillus sphaericus glutamate dehydrogenase (LsGluDH, SEQ ID NO: 2) variant A175G-I133V-V173S-A182R, SEQ ID NO: 38 (Lysinibacillus pinottii, UniProt A0ABT2DNY0, A175G/A182R/I133V/V173S).
T1 sequence (A0ABT2DNY0 1-457 A175G/A182R/I133V/V173S): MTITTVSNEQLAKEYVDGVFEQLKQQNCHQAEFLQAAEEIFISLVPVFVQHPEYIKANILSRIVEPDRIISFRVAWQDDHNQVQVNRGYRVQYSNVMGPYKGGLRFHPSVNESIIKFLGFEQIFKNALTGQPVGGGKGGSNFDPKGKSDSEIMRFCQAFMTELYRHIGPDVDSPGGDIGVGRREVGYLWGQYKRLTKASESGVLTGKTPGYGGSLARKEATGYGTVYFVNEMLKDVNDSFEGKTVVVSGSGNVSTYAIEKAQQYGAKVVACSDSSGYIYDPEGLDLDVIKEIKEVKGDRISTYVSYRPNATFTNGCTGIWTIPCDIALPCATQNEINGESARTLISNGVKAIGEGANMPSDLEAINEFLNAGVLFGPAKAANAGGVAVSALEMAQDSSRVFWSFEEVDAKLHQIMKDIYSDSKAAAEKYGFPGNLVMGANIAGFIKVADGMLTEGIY
How it is done: (§1) A plurality of reaction systems (200 μL) comprising PBS of 100 mM pH 7.5 (pH was adjusted with aqueous ammonia solution), NADPH (reductive) of 0.15 mM, NH4Cl of 50 mM, diluted (500 folds) crude enzyme solution of 10% volume and the substrate PPO at various concentrations (5-100 mM) were formulated on a 96-well plate. The intensity of the UV absorption at 340 nm was detected at 30° C., and the rate of change in absorption over time (mA/min) was recorded. The obtained parameters were plugged into Michaelis-Menten equation, in which the reaction velocity was calculated with the rate of change in absorption.
(§2) The mutants were prepared with the coding nucleic acid of LsGluDH (SEQ ID NO: 2) as the template, and the enzyme activities and the dynamic parameters Vmax and Km were measured, according to the method of Example 1. The resulted mutants and the enzyme activities and the dynamic parameters thereof are shown in Table 2, and the relative enzyme activity means the percentage of the enzyme activity of the mutant to the enzyme activity of the mutant of SEQ ID NO: 31.

Assay [2] has as its target T2, Lysinibacillus sphaericus glutamate dehydrogenase (LsGluDH, SEQ ID NO: 2) variant A175G-V173G-A182R, SEQ ID NO: 37 (Lysinibacillus pinottii, UniProt A0ABT2DNY0, A175G/A182R/V173G).
T2 sequence (A0ABT2DNY0 1-457 V173G/A175G/A182R): T1 sequence (A0ABT2DNY0 1-457 A175G/A182R/I133V/V173S) with V133I, S173G
As for the experimental part: as §1, §2

Assay [3] concerns the target T3, Lysinibacillus sphaericus glutamate dehydrogenase (LsGluDH, SEQ ID NO: 2) variant A175G-A182R, SEQ ID NO: 36 (Lysinibacillus pinottii, UniProt A0ABT2DNY0, A175G/A182R).
T3 sequence (A0ABT2DNY0 1-457 A175G/A182R): T1 sequence (A0ABT2DNY0 1-457 A175G/A182R/I133V/V173S) with V133I, S173V
How it is done: as §1, §2

Assay [4] has as its target T4, Lysinibacillus sphaericus glutamate dehydrogenase (LsGluDH, SEQ ID NO: 2) variant A175G-P132L, SEQ ID NO: 32 (Lysinibacillus pinottii, UniProt A0ABT2DNY0, A175G/P132L).
T4 sequence (A0ABT2DNY0 1-457 P132L/A175G): T1 sequence (A0ABT2DNY0 1-457 A175G/A182R/I133V/V173S) with P132L, V133I, S173V, R182A
As for the experimental part:
as §1, §2

Numbering of substitutions follows the chain as printed.

As for `CP(=O)(O)CCC(=O)C(=O)O` [PPO, 2-carbonyl-4-(hydroxymethylphosphono) butyric acid], the Km (as a rule, the substrate concentration at which the rate is half of its maximum) in assay [1] was 26 mM; in assay [2], 31 mM; in assay [3], 38 mM; in assay [4], 35 mM. For the same compound, the Vmax amounted to 38 mA/min in assay [1], 58 mA/min in assay [2], 46 mA/min in assay [3] and 45 mA/min in assay [4].

The record behind these values is US20250129344A1, “MODIFIED GLUTAMATE DEHYDROGENASE AND APPLICATION THEREOF” (Hunan Lier Biotech Co., Ltd., priority 2021, published 2025).
